Laboratory results published in patent US20230295729A1, “METHODS FOR DETECTING AND TREATING PROGESTERONE-RESISTANT INFERTILITY” (The Feinstein Institutes for Medical Research, priority 2022, published 2023).
“Also recorded” adds a separate entry of the source.

Legend:
[1] = system: endometrial stromal cells (eSCs); experiment: Decidualization of menstrual effluent-derived eSCs induced by cAMP ± MPA, IGFBP1 and PRL by ELISA; format: cell-based, human; details: for cAMP-induced decidualization (IGFBP1 and PRL production): quercetin 25 μM 4 hr before cAMP 0.5 mM for 48 hr, vs vehicle; for cAMP+MPA-induced decidualization (IGFBP1 and PRL production): control- and case-eSCs, quercetin 25 μM 4 hr before cAMP 0.5 mM + 0.1 μM MPA for 48 hr; for potentiation of decidualization: comparators tested in the same eSC system as quercetin
Description: Methods: eSCs were isolated from menstrual effluent (ME) obtained from healthy controls and surgically diagnosed endometriosis cases. To induce decidualization, passage 2-3 eSCs DMEM 2% MSC-FBS were treated with dibutryl-cAMP (cAMP, 0.5 mM)±10^-7 M medroxyprogesterone acetate (MPA) for 48 hr. eSCs were pre-treated with vehicle or quercetin (25 μM) 4 hr prior to decidualization. PRL and IGFBP1 protein and mRNA in the culture supernatants and cells, respectively, were assessed by ELISA and RT-qPCR, respectively. Endometrial stromal cells (eSCs) were isolated and grown in DMEM 10% MSC-FBS, PSQ, normocin. Passage 2-3 eSCs were split into 96 well plates or 6-well plates in DMEM 10% MSC-FBS. After overnight culture in DMEM 2% MSC-FBS, decidualization of eSCs was induced after exposure to vehicle or 25 μM quercetin for 4 hrs, followed by 0.5 mM cAMP±0.1 μM MPA for 48 hrs. Decidualization was assessed by measuring IGFBP1 and/or PRL levels in the culture supernatants by ELISA. Progesterone sensitivity was also assessed by measuring progesterone-induced genes. Two sample t tests (unpaired or paired) were used to determine significance. Assessment of progesterone sensitive genes eSCs were treated vehicle or 25 μM quercetin for 4h followed by veh or 0.5 mM cAMP+0.1 uM MPA for 6h; RNA was isolated; and qPCR was performed for the P4 sensitives gene: HAND2, or other P4 target genes.
Roughly 30-50% of endometriosis patient experience infertility. The cause of endometriosis and its link to infertility is not completely understood. It has been shown that endometrial stromal cells (eSCs) from patients with endometriosis show decreased decidualization, a progesterone-driven process critical for implantation. Quercetin is a flavonoid with anti-inflammatory and immunomodulatory activities. […] In addition, quercetin improves infertility in patients with polycystic ovary syndrome (PCOS). We assessed the effect of quercetin on decidualization and progesterone sensitivity using eSCs. Methods: eSCs were isolated from menstrual effluent (ME) obtained from healthy controls and surgically diagnosed endometriosis cases. To induce decidualization, passage 2-3 eSCs were treated with dibutryl-cAMP (cAMP, 0.25-0.5 mM)±10^-7M medroxyprogesterone acetate (MPA) for 48 hr. eSCs were pre-treated with vehicle or quercetin (25 μM) 4 hr prior to decidualization. PRL and IGFBP1 protein and mRNA in the culture supernatants and cells, respectively, were assessed by ELISA and RT-qPCR, respectively. Progesterone sensitivity was also assessed by measuring progesterone-induced genes, PLZF and IHH. Two sample t tests (unpaired or paired) were used to determine significance.

[2] = system: menstrual effluent-derived eSCs (ME-eSCs); experiment: MPA-stimulated gene expression in ME-eSCs of endometriosis cases and controls (qPCR, scRNA-seq); format: cell-based, human
Description: Methods: Low passage (p2-3) menstrual effluent-derived eSCs (ME-eSCs) obtained from women with confirmed endometriosis or healthy controls were stimulated with vehicle or MPA, a stable P4 analogue. qPCR and single cell RNA-seq (scRNA-seq, n=4 controls and 4 cases) were used to measure P4-induced gene expression and identify dysregulated pathways. Subcellular localization of PR isoforms and the PR chaperone protein, FKBP52, was assessed using immunofluorescent microscopy and western blotting of total, nuclear, and cytoplasmic preparations of ME-eSCs±MPA stimulation.

endometrial implants = details: rat model of endometriosis; cited from earlier work
[3] = system: P4 target genes (HAND2, PLZF, IHH) in endometrial stromal cells; experiment: Progesterone (P4) target gene expression in eSCs by qPCR after quercetin pre-treatment; format: cell-based, human; details: control- and case-eSCs, p<0.05; for HAND2 mRNA expression (P4 target gene): quercetin 25 μM 4 h, then vehicle or 0.5 mM cAMP + 0.1 μM MPA 6 h, qPCR
Description: Endometrial stromal cells (eSCs) were isolated and grown in DMEM 10% MSC-FBS, PSQ, normocin. Passage 2-3 eSCs were split into 96 well plates or 6-well plates in DMEM 10% MSC-FBS. After overnight culture in DMEM 2% MSC-FBS, decidualization of eSCs was induced after exposure to vehicle or 25 μM quercetin for 4 hrs, followed by 0.5 mM cAMP±0.1 μM MPA for 48 hrs. […] Progesterone sensitivity was also assessed by measuring progesterone-induced genes. Two sample t tests (unpaired or paired) were used to determine significance. Assessment of progesterone sensitive genes eSCs were treated vehicle or 25 μM quercetin for 4h followed by veh or 0.5 mM cAMP+0.1 uM MPA for 6h; RNA was isolated; and qPCR was performed for the P4 sensitives gene: HAND2, or other P4 target genes. […] Progesterone sensitivity was also assessed by measuring progesterone-induced genes, PLZF and IHH.

[4] = system: patients with polycystic ovary syndrome (PCOS); details: cited from earlier work
[5] = system: endometrial stromal cells; experiment: SASP protein expression in endometrial stromal cells by western blotting; format: cell-based, human; details: quercetin 25 μM vs vehicle, DMEM 2% FBS, 2 days, confluent cells; normalised to GAPDH
Description: FIGS. 4A-4B: Quercetin-treatment of endometrial stromal cells reduces the senescence-associated secretory phenotype (SASP) and the expression SASP proteins. (4A) Treatment of confluent endometrial stromal cells with vehicle (Veh) vs. quercetin (25 μM, Q+) in DMEM 2% FBS for 2 days alters the expression of SASP proteins (or SASPs, IL-1β, TNF-membrane form [TNF-MF], TNF-soluble form [TNF-SF], MMP3, and Lamin B1 [LamB1*] vs. GAPDH [housekeeping protein for normalization]) by endometrial stromal cells, as determined by western blotting. Relative molecular weight markers (MWM) are shown on the left. (4B) Quantification of Veh-treated vs. Q-treated protein bands are shown in 4B. *Note: All proteins are positive SASPs (increased protein expression positively correlates with senescence), except LAMB1, which is lost with the senescence phenotype. Quercetin reduces senescence-associated secretory phenotype or SASP.

[6] = ME-eSCs from cases vs. controls, qPCR
[7] = scRNA-seq, n=4 controls and 4 cases

CC(=O)O[C@]1(C(C)=O)CC[C@H]2[C@@H]3C[C@H](C)C4=CC(=O)CC[C@]4(C)[C@H]3CC[C@@]21C [MPA, medroxyprogesterone acetate]
potentiation of cAMP-induced decidualization by addition of MPA ([1]; control-eSCs, 0.1 μM MPA with cAMP, 48 hr): potentiates
MPA-stimulated IHH gene expression [2, 6]: significantly blunted
MPA-stimulated PLZF gene expression [2, 6]: significantly blunted
MPA-induced expression of CEBPD, DKK1, FABP4, MGP, and NNMT [2, 7]: significantly unregulated in controls only
MPA-induced expression of IGFBP5, MALAT1, DIO2, and KRT17 [2, 7]: significantly downregulated in controls only

O=c1c(O)c(-c2ccc(O)c(O)c2)oc2cc(O)cc(O)c12 [Quercetin, quercetin]
cAMP-induced decidualization (IGFBP1 and PRL production) ([1]; case-eSCs (endometriosis), p<0.05): significantly enhanced; also recorded: increased
cAMP+MPA-induced decidualization (IGFBP1 and PRL production) ([1]; p<0.05): increased
cAMP+MPA-induced decidualization (IGFBP1 and PRL production) ([1]; p<0.05, listed as quercetin): significantly enhanced; also recorded: further enhances
cAMP-induced decidualization (IGFBP1 and PRL production) ([1]; control-eSCs, p<0.02): significantly enhanced; also recorded: increased
anti-inflammatory effects (endometrial implants): exerted anti-inflammatory effects
growth of endometrial implants (endometrial implants): inhibited
HAND2 mRNA expression (P4 target gene) [3]: increases
HAND2 mRNA expression (P4 target gene) ([3]; listed as quercetin): significantly increased over vehicle
MPA-induced IHH mRNA expression ([3]; quercetin 25 μM vs vehicle): significantly increased over vehicle
MPA-induced PLZF mRNA expression ([3]; quercetin 25 μM vs vehicle): significantly increased over vehicle
infertility in PCOS patients [4]: improves
senescence-associated secretory phenotype (SASP) and expression of SASP proteins (IL-1β, TNF-MF, TNF-SF, MMP3, Lamin B1) [5]: reduces

O=C(O)c1ccccc1O [SA, salicylic acid, reference compound]
potentiation of decidualization [1]: did not potentiate decidualization

CC(C)Cc1ccc(C(C)C(=O)O)cc1 (stereo not shown) [ibuprofen, reference compound]
potentiation of decidualization [1]: did not potentiate decidualization
